We go through 9 molecules from US9580463B2 (BRISTOL-MYERS SQUIBB COMPANY, priority 2013, dated 2017).

Molecules are shown by their SMILES. Read-outs that look alike come from different tables or passages of the source.

Test [1] has as its system HCV genotype 1b (Con1) replicon in HUH-7 cells. The experiment in a line: HCV replicon luciferase reporter assay, genotype 1b. It counts as cell-based. Particulars: Hepatitis C virus, 72 h, genotype 1b replicon, 3 days incubation. An outline of the steps: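 Twenty-point, threefold compound titrations (0.5% DMSO) were incubated 3 days at 37 °C with 3.0×10^3 HUH-7 cells/well in 4% FCS. The cells stably carried luciferase replicons: genotype 1b Con1 (S1179I) or 1a H77 (NS3 P1496L, NS5A S2204I). Renilla signal was read after 2 h with 7.5 μM EnduRen, and EC50 was taken from a four-parameter logistic fit. Cytotoxicity (CC50) was measured by Cell Titer-Blue, 8 h.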

The subject of test [2] is HCV genotype 1a (H77 strain) replicon in HUH-7 cells. The experiment in a line: HCV replicon luciferase reporter assay, genotype 1a. It counts as cell-based. Particulars: Hepatitis C virus, 72 h, genotype 1a replicon, 3 days incubation. The text has this: An HCV replicon whole cell system was established as described by Lohmann V, Korner F, Koch J, Herian U, Theilmann L, Bartenschlager R., Science 285(5424):110-3 (1999) and modified to introduce a luciferase reporter, as first described by Krieger et al (Krieger N, Lohmann V, and Bartenschlager R, J. Virol. 75(10):4614-4624 (2001)). CDNA encoding a humanized form of the Renilla luciferase gene and a linker sequence fused directly to the 3′-end of the luciferase gene were introduced into the replicon construct using an Asc1 restriction site located in core, directly upstream of the neomycin marker gene. The adaptive mutation at position 1179 (serine to isoleucine) was also introduced (Blight K J, Kolykhalov, A A, Rice, C M, Science 290(5498):1972-1974). A stable cell line constitutively expressing this HCV replicon construct was generated by first linearizing plasmid DNAs with ScaI. RNA transcripts were synthesized in vitro using the T7 MegaScript transcription kit (Ambion, Austin, Tex.) according to manufacturer's directions. In vitro transcripts of the cDNA were transfected into the human hepatoma cell line, HUH-7. […] Resulting cell lines were characterized for positive and negative strand RNA production and protein production over time.
A stable HCV replicon luciferase reporter cell line representing the genotype 1a H77 strain (Yanagi M, Purcell R H, Emerson S U, et al. Transcripts from a single full-length cDNA clone of hepatitis C virus are infectious when directly transfected into the liver of a chimpanzee. Proc Natl Acad Sci USA 1997; 94(16):8738-8743) was generated as described previously for the genotype 1b (Con1) replicon luciferase cell line. The replicon construct was modified by introducing mutations were introduced into the genes encoding the NS3 helicase domain (proline replaced by leucine at position 1496) and NS5A (serine to isoleucine at position 2204) to improve replication in cell culture.
HCV replicon luciferase assays were developed to monitor the inhibitory effects of compounds described in the disclosure on HCV genotypes 1a and 1b viral replication. HUH-7 cells, constitutively expressing the HCV replicon, were grown in Dulbecco's Modified Eagle Media (DMEM) (Gibco-BRL) containing 10% Fetal calf serum (FCS) (Sigma) and 1 mg/mL G418 (Gibco-BRL). Compounds were serially diluted 3 folds in DMSO for a twenty-point titration and subsequently transferred to sterile 384-well tissue-culture treated plates (Corning cat #3571). The plates were then seeded with 50 μL of cells at a density of 3.0×10^3 cells/well in DMEM containing 4% FCS (final DMSO concentration at 0.5%). After 3 days incubation at 37° C., cells were analyzed for Renilla Luciferase activity using the EnduRen as substrate (Promega cat #E6485). The EnduRen substrate was diluted in DMEM and then added to the plates to a final concentration of 7.5 μM. The plates were incubated for 2 hrs at 37° C. and then read immediately for 30 seconds with Viewlux Imager (PerkinElmer) using a luminescence program. To assess cytotoxicity of compounds, CC50 values were generated by multiplexing the EnduRen-containing plates with Cell Titer-Blue (Promega, cat # G8082). Cell-Titer Blue (3 μL) was added to each well and incubated for 8 hrs at 37° C. The fluorescence signal from each well was read, with an excitation wavelength at 525/10 nm and an emission wavelength of 598/10 nm, using the Viewlux Imager.
The EC50 values for compounds were calculated by using a four-parameter logistic equation: y=A+((B−A)/(1+((C/x)^D))), where A and B denotes minimal and maximal % inhibition, respectively, C is the EC50, D is the hill slope and x represents compound concentration.
(Replicon systems follow genome replication, usually without infectious particles.)

Consider `COC[C@@H]1C[C@H](C)CC/C=C\[C@@H]2C[C@@]2(C(=O)NS(=O)(=O)C2(C)CC2)NC(=O)[C@@H]2C[C@@H](Oc3ncc(OC)c4ccccc34)CN2C(=O)[C@H]1NC(=O)OC(C)(C)C(F)(F)F` [Compound 1016, 1,1,1-trifluoro-2-methylpropan-2-yl ((2R,6S,7R,9R,13aS,14aR,16aS,Z)-2-((4-methoxyisoquinolin-1-yl)oxy)-7-(methoxymethyl)-9-methyl-14a-(((1-methylcyclopropyl)sulfonyl)carbamoyl)-5,16-dioxo-1,2,3,5,6,7,8,9,10,11,13a,14,14a,15,16,16a-hexadecahydrocyclopropa[e]pyrrolo[1,2-a][1,4]diazacyclopentadecin-6-yl)carbamate], for which the EC50 is 0.26 nM in test [1] (read-out: LE_1b (EC50)); 0.1 to 0.5 nM in test [1] (read-out: LE_1b (EC50, range)); 0.84 nM in test [2] (read-out: LE_1a (EC50)); 0.51 to 1 nM in test [2] (read-out: LE_1a (EC50, range)).
Take `COC[C@@H]1C[C@H](C)CC/C=C\[C@@H]2C[C@@]2(C(=O)NS(=O)(=O)C2(CF)CC2)NC(=O)[C@@H]2C[C@@H](Oc3nc4cc(OC)ccc4nc3C(C)C)CN2C(=O)[C@H]1NC(=O)OC(C)(C)C` [Compound 1025, tert-butyl ((2R,6S,7R,9R,13aS,14aR,16aS,Z)-14a-(((1-(fluoromethyl)cyclopropyl)sulfonyl)carbamoyl)-2-((3-isopropyl-7-methoxyquinoxalin-2-yl)oxy)-7-(methoxymethyl)-9-methyl-5,16-dioxo-1,2,3,5,6,7,8,9,10,11,13a,14,14a,15,16,16a-hexadecahydrocyclopropa[e]pyrrolo[1,2-a][1,4]diazacyclopentadecin-6-yl)carbamate]: the EC50 in test [1] (read-out: LE_1b (EC50)) is 1.38 nM; in test [1] (read-out: LE_1b (EC50, range)), 1.01 to 5 nM; in test [2] (read-out: LE_1a (EC50)), 7.01 nM; in test [2] (read-out: LE_1a (EC50, range)), 5.01 to 35 nM.
As to `COC[C@@H]1C[C@H](C)CC/C=C\[C@@H]2C[C@@]2(C(=O)NS(=O)(=O)C2(C)CC2)NC(=O)[C@@H]2C[C@@H](Oc3nccc4cc(OC)ccc34)CN2C(=O)[C@H]1NC(=O)OC(C)(C)C(F)(F)F` [Compound 1014, 1,1,1-trifluoro-2-methylpropan-2-yl ((2R,6S,7R,9R,13aS,14aR,16aS,Z)-2-((6-methoxyisoquinolin-1-yl)oxy)-7-(methoxymethyl)-9-methyl-14a-(((1-methylcyclopropyl)sulfonyl)carbamoyl)-5,16-dioxo-1,2,3,5,6,7,8,9,10,11,13a,14,14a,15,16,16a-hexadecahydrocyclopropa[e]pyrrolo[1,2-a][1,4]diazacyclopentadecin-6-yl)carbamate], the EC50 in test [1] (read-out: LE_1b (EC50, range)) lay within 0.51 to 1 nM; in test [2] (read-out: LE_1a (EC50, range)), 1.01 to 5 nM.
For `COC[C@@H]1C[C@H](C)CC/C=C\[C@@H]2C[C@@]2(C(=O)NS(=O)(=O)C2(CF)CC2)NC(=O)[C@@H]2C[C@@H](Oc3nc4cc(OC)ccc4nc3C(F)(F)F)CN2C(=O)[C@H]1NC(=O)OC(C)(C)C` [Compound 1035, tert-butyl ((2R,6S,7R,9R,13aS,14aR,16aS,Z)-14a-(((1-(fluoromethyl)cyclopropyl)sulfonyl)carbamoyl)-2-((7-methoxy-3-(trifluoromethyl)quinoxalin-2-yl)oxy)-7-(methoxymethyl)-9-methyl-5,16-dioxo-1,2,3,5,6,7,8,9,10,11,13a,14,14a,15,16,16a-hexadecahydrocyclopropa[e]pyrrolo[1,2-a][1,4]diazacyclopentadecin-6-yl)carbamate], the EC50 was 1.01 to 5 nM in test [1] (read-out: LE_1b (EC50, range)) and 1.01 to 5 nM in test [2] (read-out: LE_1a (EC50, range)).
With `COC[C@@H]1CCCC/C=C\[C@@H]2C[C@@]2(C(=O)NS(=O)(=O)C2CC2)NC(=O)[C@@H]2C[C@@H](Oc3nc4cc(OC)ccc4nc3C(F)(F)F)CN2C(=O)[C@H]1NC(=O)OC(C)(C)C(F)(F)F` [Compound 1021, 1,1,1-trifluoro-2-methylpropan-2-yl ((2R,6S,7R,13aS,14aR,16aS,Z)-14a-((cyclopropylsulfonyl)carbamoyl)-2-((7-methoxy-3-(trifluoromethyl)quinoxalin-2-yl)oxy)-7-(methoxymethyl)-5,16-dioxo-1,2,3,5,6,7,8,9,10,11,13a,14,14a,15,16,16a-hexadecahydrocyclopropa[e]pyrrolo[1,2-a][1,4]diazacyclopentadecin-6-yl)carbamate], the EC50 was 0.1 to 0.5 nM in test [1] (read-out: LE_1b (EC50, range)) and 1.01 to 5 nM in test [2] (read-out: LE_1a (EC50, range)).
`COC[C@@H]1C[C@H](C)CC/C=C\[C@@H]2C[C@@]2(C(=O)NS(=O)(=O)C2(C)CC2)NC(=O)[C@@H]2C[C@@H](Oc3nccc4cc(OC)ccc34)CN2C(=O)[C@H]1NC(=O)OC(C)(C)C` [Compound 1005, tert-butyl ((2R,6S,7R,9R,13aS,14aR,16aS,Z)-2-((6-methoxyisoquinolin-1-yl)oxy)-7-(methoxymethyl)-9-methyl-14a-(((1-methylcyclopropyl)sulfonyl)carbamoyl)-5,16-dioxo-1,2,3,5,6,7,8,9,10,11,13a,14,14a,15,16,16a-hexadecahydrocyclopropa[e]pyrrolo[1,2-a][1,4]diazacyclopentadecin-6-yl)carbamate]: the EC50 was in the range of 0.1 to 0.5 nM in test [1] (read-out: LE_1b (EC50, range)) and 1.01 to 5 nM in test [2] (read-out: LE_1a (EC50, range)).
On to `COC[C@@H]1C[C@H](C)CC/C=C\[C@@H]2C[C@@]2(C(=O)NS(=O)(=O)C2(CF)CC2)NC(=O)[C@@H]2C[C@@H](Oc3nc4cc(OC)ccc4nc3C(F)(F)F)CN2C(=O)[C@H]1NC(=O)OC(C)(C)C(F)(F)F` [Compound 1037, 1,1,1-trifluoro-2-methylpropan-2-yl ((2R,6S,7R,9R,13aS,14aR,16aS,Z)-14a-(((1-(fluoromethyl)cyclopropyl)sulfonyl)carbamoyl)-2-((7-methoxy-3-(trifluoromethyl)quinoxalin-2-yl)oxy)-7-(methoxymethyl)-9-methyl-5,16-dioxo-1,2,3,5,6,7,8,9,10,11,13a,14,14a,15,16,16a-hexadecahydrocyclopropa[e]pyrrolo[1,2-a][1,4]diazacyclopentadecin-6-yl)carbamate], for which the EC50 lay within 1.01 to 5 nM in test [1] (read-out: LE_1b (EC50, range)) and 1.01 to 5 nM in test [2] (read-out: LE_1a (EC50, range)).
In the case of `COC[C@@H]1CCCC/C=C\[C@@H]2C[C@@]2(C(=O)NS(=O)(=O)C2(C)CC2)NC(=O)[C@@H]2C[C@@H](Oc3ncc(OC)c4ccccc34)CN2C(=O)[C@H]1NC(=O)OC(C)(C)C(F)(F)F` [Compound 1002, 1,1,1-trifluoro-2-methylpropan-2-yl ((2R,6S,7R,13aS,14aR,16aS,Z)-2-((4-methoxyisoquinolin-1-yl)oxy)-7-(methoxymethyl)-14a-(((1-methylcyclopropyl)sulfonyl)carbamoyl)-5,16-dioxo-1,2,3,5,6,7,8,9,10,11,13a,14,14a,15,16,16a-hexadecahydrocyclopropa[e]pyrrolo[1,2-a][1,4]diazacyclopentadecin-6-yl)carbamate], the EC50 in test [1] (read-out: LE_1b (EC50, range)) was in the range of 0.1 to 0.5 nM; in test [2] (read-out: LE_1a (EC50, range)) it was 0.51 to 1 nM.
For `COC[C@@H]1C[C@@H](C)CC/C=C\[C@@H]2C[C@@]2(C(=O)NS(=O)(=O)C2CC2)NC(=O)[C@@H]2C[C@@H](Oc3nccc4cc(OC)ccc34)CN2C(=O)[C@H]1NC(=O)OC(C)(C)C` [Compound 1008, tert-butyl ((2R,6S,7R,9S,13aS,14aR,16aS,Z)-14a-((cyclopropylsulfonyl)carbamoyl)-2-((6-methoxyisoquinolin-1-yl)oxy)-7-(methoxymethyl)-9-methyl-5,16-dioxo-1,2,3,5,6,7,8,9,10,11,13a,14,14a,15,16,16a-hexadecahydrocyclopropa[e]pyrrolo[1,2-a][1,4]diazacyclopentadecin-6-yl)carbamate], the EC50 fell in the range of 1.01 to 5 nM in test [1] (read-out: LE_1b (EC50, range)) and 1.01 to 5 nM in test [2] (read-out: LE_1a (EC50, range)).

By EC50 is commonly meant the concentration giving half of the maximal effect.
